Where a name gives a salt, the structure may show the parent alone.
Key:
[1] = tested on: Rattus norvegicus; assay: Hypolipidemic activity in CFY Sprague-Dawley rat assessed as serum triglyceride level at 0.25% dietary level administered for 7 days relative to control; assay type: functional
[2] = tested on: Liver; assay: Inhibition of cholesterol biosynthesis from [1-14C]acetate in rat liver slices at […] relative to control; assay type: functional
[3] = tested on: Rattus norvegicus; assay: Toxicity in CFY Sprague-Dawley rat assessed as relative liver weight at 0.25% dietary level administered for 7 days relative to control; assay type: organism-based; details: in vivo, po, 168 h
[4] = tested on: Rattus norvegicus; assay: Toxicity in CFY Sprague-Dawley rat assessed as body weight gain at 0.25% dietary level administered for 7 days relative to control; assay type: organism-based; details: in vivo, po, 168 h
[5] = tested on: Rattus norvegicus; assay: Hypolipidemic activity in CFY Sprague-Dawley rat assessed as serum cholesterol level at 0.25% dietary level administered for 7 days relative to control; assay type: functional
[6] = tested on: Liver; assay: Inhibition of fatty acid biosynthesis from [1-14C]acetate in rat liver slices at 5 X 10^-4 M relative to control; assay type: functional
[7] = tested on: Rattus norvegicus; assay: Hypolipidemic activity in CFY Sprague-Dawley rat assessed as liver lipid per gm of liver at 0.25% dietary level administered for 7 days relative to control; assay type: functional

Structure (SMILES)	Activity [1]	inhibition at 500 µM [2]	Activity [3]	Activity [4]	Activity [5]	inhibition at 500 µM [6]	Activity [7]
CCOC(=O)c1ccc(OCc2cccc([N+](=O)[O-])c2)cc1	-28%	54%	-4%	-29%	-7%	47%	
CCOC(=O)c1ccc(OCc2ccc(Cl)cc2Cl)cc1	-42%		-2%	-15%	-18%		8%
Cc1ccc(OCc2ccccc2)cc1	-19%	67%	29%	-7%	-19%	43%	
CCOC(=O)c1ccc(OCc2cc(Cl)ccc2Cl)cc1	-56%		13%	4%	-25%		22%
COC(=O)CCc1ccc(OCc2ccccc2)cc1	-45%		18%	-3%	-16%		3%
CCOC(=O)c1ccc(OCc2cccc(C)c2)cc1	-54%	97%	-2%	-10%	-18%	82%	
CCc1ccc(OCc2ccccc2)cc1	-57%		20%	-3%	-17%		-6%
N#Cc1ccc(OCc2ccc(F)cc2)cc1	1%		20%	6%	-17%		7%
CCOC(=O)CCCCCc1ccc(OCc2ccccc2)cc1	-83%		21%	-7%	-38%		32%
N#Cc1ccc(OCc2ccc(Cl)c(Cl)c2)cc1	-6%		18%	-9%	-19%		8%
COC(=O)Cc1ccc(OCc2ccccc2)c(OC)c1	-45%		0%	-68%	-30%		8%
CCOC(=O)C(C)(C)Oc1ccc(Cl)cc1 [CLOFIBRATE]	-31%		32%	0%	-23%		3%
COc1cc(C=O)ccc1OCc1ccccc1	-18%		0%	-16%	-23%		1%
CCOC(=O)Cc1ccc(OCc2cccc(F)c2)cc1	-71%		18%	-17%	-37%		9%
O=C(OCc1ccccc1)c1ccc(OCc2ccccc2)cc1	-50%		6%	6%	-21%		7%
CCOC(=O)c1ccc(COc2ccc(C)cc2)cc1	-41%		4%	5%	-20%		13%
CCOC(=O)Cc1ccc(OCc2ccc(F)cc2)cc1	-71%		19%	3%	-29%		11%
CCCC(C(=O)OCCN(CC)CC)(c1ccccc1)c1ccccc1 [PROADIFEN HYDROCHLORIDE]		86%				62%	
COC(=O)c1ccc(OCc2ccccc2)cc1	-51%		15%	-14%	-19%		4%
O=C([O-])c1ccc(OCc2ccccc2)cc1.[Na+]	-38%		2%	-13%	-15%		12%

— ChEMBL document CHEMBL3272121, “Hypolipidemic analogues of ethyl 4-benzyloxybenzoate” (J Med Chem, 1977)
